Data reported in patent US6348461B1, “6,7-asymmetrically disubstituted quinoxalinecarboxylic acid derivatives, addition salts thereof, and processes for the preparation of both” (Kyorin Pharmaceutical Co., Ltd., priority 1997, dated 2002).

What was measured:
[1] = target: AMPA receptor; test: Binding experiment to AMPA receptor ([3H]-AMPA displacement, crude synaptosome membrane preparations); set-up: species or system rats; details: crude synaptosome membranes from rat cerebral cortex; [3H]-AMPA 5 nM; potassium thiocyanate 100 mM; 30 minutes at 0° C.; Ki converted from IC50
Description: Binding Experiment to AMPA Receptor
After the reactions were stopped by suction filtration, the radio activity on the filter was measured with liquid scintillation counter. The specific binding of [^3H]-AMPA was determined by subtracting nonspecific binding level in the presence of glutamic acid (0.1 mM) from overall binding level.

Structure (SMILES) | melting point | Ki [1]
O=C(O)c1nc2cc(-n3ccc(=O)cc3)c([N+](=O)[O-])cc2[nH]c1=O [Example 37, 3,4-Dihydro-6-nitro-3-oxo-7-(4-pyridone-1-yl)quinoxaline-2-carboxylic Acid] | 283 to 285 °C | 330 nM
O=C(Nc1ccccc1)OCc1cn(-c2cc3nc(C(=O)O)c(=O)[nH]c3cc2[N+](=O)[O-])ccc1=O [Example 121, 3,4-Dihydro-6-nitro-3-oxo-7-(3-((N-phenylcarbamoyloxy)methyl)-4-pyridone-1-yl)quinoxaline-2-carboxylic Acid] | 230 to 232 °C (dec.) | 172 nM
O=C(Nc1ccccc1C(F)(F)F)OCc1cn(-c2cc3nc(C(=O)O)c(=O)[nH]c3cc2[N+](=O)[O-])cn1 [Example 101] | 230 to 232 °C (dec.) | 32.3 nM
O=C(Nc1ccccc1F)OCc1cn(-c2cc3nc(C(=O)O)c(=O)[nH]c3cc2[N+](=O)[O-])cn1 [Example 96] | 251 to 253 °C (dec.) | 28.2 nM
Cl.O=C(O)c1nc2cc(Cn3ccnc3)c([N+](=O)[O-])cc2[nH]c1=O [Example 66, 3,4-Dihydro-7-(imidazole-1-yl)methyl-6-nitro-3-oxoquinoxaline-2-carboxylic Acid Hydrochloride] | > 300 °C | 360 nM
O=C(Nc1cccc(Br)c1)OCc1cn(-c2cc3nc(C(=O)O)c(=O)[nH]c3cc2[N+](=O)[O-])ccc1=O [Example 123] | 199 to 201 °C (dec.) | 48.1 nM
O=C(O)c1nc2cc(-n3ccnc3)c(C(F)(F)F)cc2[nH]c1=O [Example 168, 3,4-Dihydro-7-imidazolyl-3-oxo-6-trifluoromethylquinoxaline-2-carboxylic Acid] | 232 to 234 °C (dec.) | 
COc1ccccc1N1CCN(c2cc3nc(C(=O)O)c(=O)[nH]c3cc2[N+](=O)[O-])CC1 [Example 59, 3,4-Dihydro-7-(4-(2-methoxyphenyl)piperazine-1-yl)-6-nitro-3-oxoquinoxaline-2-carboxylic Acid] | 204 to 206 °C | 
O=C(NCc1ccn(-c2cc3nc(C(=O)O)c(=O)[nH]c3cc2C(F)(F)F)c1)Nc1cccc(C(=O)O)c1 [Example 187, 7-(3-(((3-Carboxyphenyl)aminocarbonylamino)methyl)pyrrole-1-yl)-3,4-dihydro-3-oxo-6-trifluoromethylquinoxaline-2-carboxylic Acid] | 300 °C | 
Nc1cc2nc(C(=O)O)c(=O)[nH]c2cc1C(F)(F)F [Example 164, 7-Amino-3,4-dihydro-3-oxo-6-trifluoromethylquinoxaline-2-carboxylic Acid] | 218 to 220 °C (dec.) | 

Next, values leading:

melting point | Ki [1] | Structure (SMILES)
213.5 to 214.5 °C | 2040 nM | O=C(O)c1nc2cc(N3CCOCC3)c([N+](=O)[O-])cc2[nH]c1=O [Example 35, 3,4-Dihydro-7-morpholino-6-nitro-3-oxoquinoxaline-2-carboxylic Acid]
 | 630 nM | O=C(O)c1nc2cc(Br)c([N+](=O)[O-])cc2[nH]c1=O [Example 7, 7-Bromo-3,4-dihydro-6-nitro-3-oxoquinoxaline-2-carboxylic Acid]
239 to 242 °C | 330 nM | Cc1cc2nc(C(=O)O)c(=O)[nH]c2cc1[N+](=O)[O-] [Example 8, 3,4-Dihydro-7-methyl-6-nitro-3-oxoquinoxaline-2-carboxylic Acid]
 | 1260 nM | O=C(O)c1nc2cc(Cl)c([N+](=O)[O-])cc2[nH]c1=O [Example 5, 7-Chloro-3,4-dihydro-6-nitro-3-oxoquinoxaline-2-carboxylic Acid]
154 to 156 °C (dec.) | 860 nM | O=C(O)c1nc2cc(Oc3ccccc3)c([N+](=O)[O-])cc2[nH]c1=O [Example 62, 3,4-Dihydro-6-nitro-3-oxo-7-phenoxyquinoxaline-2-carboxylic Acid]
 | 910 nM | CN(C)c1cc2nc(C(=O)O)c(=O)[nH]c2cc1[N+](=O)[O-] [Example 39, 3,4-Dihydro-7-dimethylamino-6-nitro-3-oxoquinoxaline-2-carboxylic Acid]
> 300 °C | 450 nM | O=C(O)c1nc2cc(-n3ccnc3)c([N+](=O)[O-])cc2[nH]c1=O [Example 36, 3,4-Dihydro-7-(imidazole-1-yl)-6-nitro-3-oxoquinoxaline-2-carboxylic Acid]
 | 2010 nM | O=C(O)c1nc2cc(F)c([N+](=O)[O-])cc2[nH]c1=O [Example 6, 3,4-Dihydro-7-fluoro-6-nitro-3-oxoquinoxaline-2-carboxylic Acid]
